Test results published in ChEMBL document CHEMBL5154862, “Structure-Based Discovery of MDM2/4 Dual Inhibitors that Exert Antitumor Activities against MDM4-Overexpressing Cancer Cells” (J Med Chem, 2022).
pIC50: −log10 of the molar value. Activity calls are given as the source filed them. No cut-off for these calls is given here.

Assays:
MCF7 [1] = assay: Upregulation of p53 protein expression in human MCF7 cells at 2.5 uM measured after 24 hrs by Western blot analysis; type: functional, cell-based
HCT-116 [2] = assay: Upregulation of MDM2 protein expression in human HCT-116 cells at 2.5 uM measured after 24 hrs by Western blot analysis; type: functional, cell-based
HCT-116 [3] = assay: Induction of PARP cleavage in human HCT-116 cells incubated for 24 hrs by Western blot analysis; type: functional, cell-based; conditions: dose 0.078125-2.5 µM, DDE = dose-dependent effect
[4] = Cytotoxicity against HEK293 cells assessed as cell growth inhibition incubated for 4 days by CCK-8 assay; type: toxicity, cell-based; conditions: human
RKO [5] = assay: Induction of apoptosis in human RKO cells assessed as early apoptotic cells at 6.25 uM measured after 48 hrs by Annexin V-FITC/PI staining based flow cytometry analysis (reference value: 3.56 %); type: functional
MCF7 [6] = assay: Effect on MDM4 protein expression in human MCF7 cells at 2.5 uM measured after 24 hrs by Western blot analysis; type: functional, cell-based
RKO [7] = assay: Upregulation of MDM2 gene expression in human RKO cells at 0.31 uM incubated for 24 hrs by qPCR analysis; type: functional, cell-based
RKO [8] = assay: Antitumor activity against human RKO cells xenografted in BALB/c mouse assessed as tumor growth inhibition at 100 mg/kg, po bid administered via gavage for 21 consecutive days and measured on day 21 relative to control; type: functional; conditions: 504 h, time 21 day, read-out: TGI
RKO [9] = assay: Induction of apoptosis in human RKO cells assessed as late apoptotic cells at 12.5 uM measured after 48 hrs by Annexin V-FITC/PI staining based flow cytometry analysis (reference value: 0.82 %); type: functional
MCF7 [10] = assay: cells; conditions: Homo sapiens, MCF7, 96 h
RKO [11] = assay: Upregulation of p21 expression in human RKO cells incubated for 24 hrs by Western blot analysis; type: functional, cell-based; conditions: dose 0.3125-2.5 µM, DDE = dose-dependent effect
RKO [12] = assay: Induction of apoptosis in human RKO cells assessed as viable cells at 12.5 uM measured after 48 hrs by Annexin V-FITC/PI staining based flow cytometry analysis (reference value: 93.54 %); type: functional; conditions: read-out: Activity
RKO [13] = assay: Induction of cell cycle arrest in human RKO cells assessed as effect on cell cycle distribution incubated for 24 hrs by FACSCalibur flow cytometry analysis; type: functional, cell-based; conditions: dose 6.25-25 µM, DDE = dose-dependent effect
RKO [14] = assay: Induction of apoptosis in human RKO cells assessed as necrotic cells at 6.25 uM measured after 48 hrs by Annexin V-FITC/PI staining based flow cytometry analysis (reference value: 2.08 %); type: functional
NCI-H460 = assay: Upregulation of p53 protein expression in human NCI-H460 cells at 2.5 uM measured after 24 hrs by Western blot analysis; type: functional, cell-based
SW480 = assay: cells; conditions: Homo sapiens, SW480, 96 h
RKO [15] = assay: Upregulation of p53 expression in human RKO cells incubated for 24 hrs by Western blot analysis; type: functional, cell-based; conditions: dose 0.3125-2.5 µM, DDE = dose-dependent effect

For `COc1cc(C(=O)O)ccc1NC(=O)[C@@H]1N[C@@H](CC(C)(C)C)[C@](CNCc2ccncc2)(c2ccc(Cl)cc2F)[C@H]1c1cccc(Cl)c1F`, the Activity (MCF7 [1]) was “Active”, the Activity (HCT-116 [2]) was “Active” and the Activity (HCT-116 [3]) was “Dde”. The IC50 at 4 days [4] was 6.25 µM, the Activity (RKO [5]) was 6.28% and the Activity (MCF7 [6]) was “Active”. For the same compound, the Activity (RKO [7]) was “Active”, the inhibition in vivo at 100 mg/kg (RKO [8]) was 18% and the Activity (RKO [9]) was 3.81%. For the same compound, the pIC50 (MCF7 [10]) was 6.28, the Activity (RKO [11]) was “Dde” and the viability at 12.5 µM (RKO [12]) was 85%. The Activity (RKO [13]) was “Dde”, the Activity (RKO [14]) was 16.09% and the Activity (NCI-H460) was “Active”. For the same compound, the pIC50 (SW480) was 5.55 and the Activity (RKO [15]) was “Dde”.
